Results from US20160039880A1 (priority 2012, published 2016).
In brackets after ≈: the same amount, converted by molar mass. Like-named read-outs stand apart in the source and are kept apart here.

Key:
[1] = biological target: T1, Human recombinant cyclophilin A (Cyp A) (Homo sapiens, UniProt P62937);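 also: cis to trans isomerization of SUC-AAPF-pNA by 2 nM enzyme, read as absorbance at 330 nm over 300 s at 10 °C, catalytic rate corrected for uncatalyzed background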
[2] = biological target: T1, Human recombinant cyclophilin A (Cyp A); assay: Protease-free PPIase assay;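 also: cis to trans isomerization of SUC-AAPF-pNA by 2 nM enzyme, read as absorbance at 330 nm over 300 s at 10 °C, catalytic rate corrected for uncatalyzed background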
[3] = Water Solubility Assay (measured in pH 7.8 buffer); format: physicochemical; conditions: kinetic from dmso stock;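 also: precipitation onset detected as rise in absorbance at 650 nm across increasing concentrations, after shaking for 18 h, blank wells receiving DMSO only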
[4] = 35 mM HEPES buffer pH 7.8, 25 °C, aqueous buffer, pH 7.8 buffer, read-out: Water Solubility Assay

T1 sequence (P62937 whole entry): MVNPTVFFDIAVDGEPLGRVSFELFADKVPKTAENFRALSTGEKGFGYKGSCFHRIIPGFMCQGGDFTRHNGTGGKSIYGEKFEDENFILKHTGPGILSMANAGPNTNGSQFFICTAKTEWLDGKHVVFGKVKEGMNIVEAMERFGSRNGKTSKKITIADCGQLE

Row | SMILES | Ki [1] [nM] | Ki [2] [nM] | solubility at 18 h ([3]; 25 °C, pH 7.8, aqueous buffer) [µM] | solubility at 18 h [3, 4] [µM]
1 | CCC1NC(=O)C(C(O)C(C)CCNCCc2c[nH]cn2)N(C)C(=O)C(C(C)C)N(C)C(=O)C(CC(C)C)N(C)C(=O)C(CC(C)C)N(C)C(=O)C(C)NC(=O)C(C)NC(=O)C(CC(C)C)N(C)C(=O)C(C(C)C)NC(=O)C(CC(C)C)N(C)C(=O)C(C)N(C)C1=O [Compound AK, [(3R,4R,5S)-4-Hydroxy-3-methyl-5-(methylamino)-1-(2-{1H-imidazol-4-yl}-ethylamino)-hexanoic acid]^1[(R)-methyl-Sar]^3 cyclosporin A] | 42 | – | – | –
2 | CC[C@H]1NC(=O)[C@@H]([C@H](O)[C@H](C)CCN2CCNC(=O)C2)N(C)C(=O)[C@@H](C(C)C)N(C)C(=O)[C@@H](CC(C)C)N(C)C(=O)[C@@H](CC(C)C)N(C)C(=O)[C@H](C)NC(=O)[C@@H](C)NC(=O)[C@@H](CC(C)C)N(C)C(=O)[C@@H](C(C)C)NC(=O)[C@H](CC(C)C)N(C)C(=O)[C@@H](C)N(C)C1=O [Compound N, [(3R,4R,5S)-4-hydroxy-3-methyl-5-(methylamino)-1-(N-3-piperazinone)-hexanoic acid]^1[(R)-Me-Sar]^3 cyclosporin A] | 6.1 | – | – | –
3 | CCC1NC(=O)C(C(O)C(C)CCCN2CCOCC2)N(C)C(=O)C(C(C)C)N(C)C(=O)C(CC(C)C)N(C)C(=O)C(CC(C)C)N(C)C(=O)C(C)NC(=O)C(C)NC(=O)C(CC(C)C)N(C)C(=O)C(C(C)C)NC(=O)C(CC(C)C)N(C)C(=O)CN(C)C1=O [Compound EI, [(4R,5R,6S)-5-Hydroxy-4-methyl-6-(methylamino)-1-(morpholin-4-yl)-heptanoic acid]^1 cyclosporin A] | 14 | – | – | –
4 | CC[C@H]1NC(=O)[C@@H]([C@H](O)[C@H](C)CCN2CCOCC2)N(C)C(=O)[C@@H](C(C)C)N(C)C(=O)[C@@H](CC(C)C)N(C)C(=O)[C@@H](CC(C)C)N(C)C(=O)[C@H](C)NC(=O)[C@@H](C)NC(=O)[C@@H](CC(C)C)N(C)C(=O)[C@@H](C(C)C)NC(=O)[C@H](CC(C)C)N(C)C(=O)[C@@H](C)N(C)C1=O [Compound F, [(3R,4R,5S)-4-(hydroxy)-3-methyl-5-(methylamino)-1-(morpholin-4-yl)hexanoic acid]^1[(R)-Me-Sar]^3 cyclosporin A] | 4.5 | – | – | –
5 | CC[C@H]1NC(=O)[C@@H]([C@H](O)[C@H](C)CCN2CC3CCC(C2)O3)N(C)C(=O)[C@@H](C(C)C)N(C)C(=O)[C@@H](CC(C)C)N(C)C(=O)[C@@H](CC(C)C)N(C)C(=O)[C@H](C)NC(=O)[C@@H](C)NC(=O)C(CC(C)C)N(C)C(=O)[C@@H](C(C)C)NC(=O)[C@H](CC(C)C)N(C)C(=O)[C@@H](C)N(C)C1=O (stereo partly drawn) [Compound DV, [(3R,4R,5S)-4-Hydroxy-3-methyl-5-(methylamino)-1-(8-oxa-3-aza-bicyclo[3.2.1]oct-3-yl)-hexanoic acid]^1[(R)-methyl-Sar]^3 cyclosporin A] | – | 4.3 | 50 to 75 (≈ 65.1 to 97.6 µg/mL) | –
6 | CC[C@H]1NC(=O)[C@@H]([C@H](O)[C@H](C)CCN2CCOc3ccccc32)N(C)C(=O)[C@@H](C(C)C)N(C)C(=O)[C@@H](CC(C)C)N(C)C(=O)[C@@H](CC(C)C)N(C)C(=O)[C@H](C)NC(=O)[C@@H](C)NC(=O)C(CC(C)C)N(C)C(=O)[C@@H](C(C)C)NC(=O)[C@H](CC(C)C)N(C)C(=O)[C@@H](C)N(C)C1=O (stereo partly drawn) [Compound DX, [(3R,4R,5S)-1-(2,3-Dihydro-benzo[1,4]oxazin-4-yl)-4-Hydroxy-3-methyl-5-(methylamino)-hexanoic acid]^1[(R)-methyl-Sar]^3 cyclosporin A] | – | 5.2 | – | 25 to 50 (≈ 33.1 to 66.2 µg/mL)
7 | CC[C@H]1NC(=O)[C@@H]([C@H](O)[C@H](C)CCN2CCOCC2)N(C)C(=O)[C@@H](C(C)C)N(C)C(=O)[C@@H](CC(C)C)N(C)C(=O)[C@@H](CC(C)C)N(C)C(=O)[C@H](C)NC(=O)[C@@H](C)NC(=O)[C@@H](CC(C)C)N(C)C(=O)[C@@H](C(C)C)NC(=O)[C@H](CC(C)C)N(C)C(=O)[C@@H](OC)N(C)C1=O [Compound B, [(3R,4R,5S)-4-Hydroxy-3-methyl-5-(methylamino)-1-N-morpholino-hexanoic acid]^1[(S)-methoxy-Sar]^3 cyclosporin A] | – | 8 | > 100 | –
8 | CC[C@H]1NC(=O)[C@@H]([C@H](O)[C@H](C)CCCCCNCCOC)N(C)C(=O)[C@@H](C(C)C)N(C)C(=O)[C@@H](CC(C)C)N(C)C(=O)[C@@H](CC(C)C)N(C)C(=O)[C@H](C)NC(=O)[C@@H](C)NC(=O)[C@@H](CC(C)C)N(C)C(=O)[C@@H](C(C)C)NC(=O)[C@H](CC(C)C)N(C)C(=O)[C@@H](C)N(C)C1=O [Compound AI, [(6R,7R,8S)-7-Hydroxy-6-methyl-8-(methylamino)-1-N-(2-methoxy)ethylamino-nonanoic acid]^1[(R)-methyl-Sar]^3 cyclosporin A] | – | 3.3 | > 100 | –
9 | CC[C@H]1NC(=O)[C@@H]([C@H](O)[C@H](C)CCN2CCOCC2)N(C)C(=O)[C@@H](C(C)C)N(C)C(=O)[C@@H](CC(C)C)N(C)C(=O)[C@@H](CC(C)C)N(C)C(=O)[C@H](C)NC(=O)[C@@H](C)NC(=O)[C@@H](CC(C)C)N(C)C(=O)[C@@H](C(C)C)NC(=O)[C@H](CC(C)C)N(C)C(=O)[C@@H](CO)N(C)C1=O [Compound V, [(3R,4R,5S)-4-Hydroxy-3-methyl-5-(methylamino)-1-N-morpholino-hexanoic acid]^1[(R)-hydroxymethyl-Sar]^3 cyclosporin A] | – | 4.5 | > 100 | –
10 | CC[C@H]1NC(=O)[C@@H]([C@H](O)[C@H](C)CCN(Cc2ccccn2)Cc2ccccn2)N(C)C(=O)[C@@H](C(C)C)N(C)C(=O)[C@@H](CC(C)C)N(C)C(=O)[C@@H](CC(C)C)N(C)C(=O)[C@H](C)NC(=O)[C@@H](C)NC(=O)[C@@H](CC(C)C)N(C)C(=O)[C@@H](C(C)C)NC(=O)[C@H](CC(C)C)N(C)C(=O)[C@@H](C)N(C)C1=O [Compound DB, [(3R,4R,5S)-1-(Bis{pyridin-2-ylmethyl}amino)-4-hydroxy-3-methyl-5-(methylamino)-hexanoic acid]^1[(R)-methyl-Sar]^3 cyclosporin A] | – | 7.4 | – | 75 to 100 (≈ 104 to 139 µg/mL)
11 | CC[C@H]1NC(=O)[C@@H]([C@H](O)[C@H](C)CCN(C)Cc2ccnn2C)N(C)C(=O)[C@@H](C(C)C)N(C)C(=O)[C@@H](CC(C)C)N(C)C(=O)[C@@H](CC(C)C)N(C)C(=O)[C@H](C)NC(=O)[C@@H](C)NC(=O)[C@@H](CC(C)C)N(C)C(=O)[C@@H](C(C)C)NC(=O)[C@H](CC(C)C)N(C)C(=O)[C@@H](C)N(C)C1=O [Compound DJ, [(3R,4R,5S)-4-Hydroxy-3-methyl-5-(methylamino)-1-({2-methyl-2H-pyrazol-3-ylmethyl}-methylamino)-hexanoic acid]^1[(R)-methyl-Sar]^3 cyclosporin A] | – | 5.4 | – | > 100
12 | CC[C@H]1NC(=O)[C@@H]([C@H](O)[C@H](C)CCN(C)Cc2cncn2C)N(C)C(=O)[C@@H](C(C)C)N(C)C(=O)[C@@H](CC(C)C)N(C)C(=O)[C@@H](CC(C)C)N(C)C(=O)[C@H](C)NC(=O)[C@@H](C)NC(=O)[C@@H](CC(C)C)N(C)C(=O)[C@@H](C(C)C)NC(=O)[C@H](CC(C)C)N(C)C(=O)[C@@H](C)N(C)C1=O [Compound DI, [(3R,4R,5S)-4-Hydroxy-3-methyl-5-(methylamino)-1-({3-methyl-3H-imidazol-4-ylmethyl}-methylamino)-hexanoic acid]^1[(R)-methyl-Sar]^3 cyclosporin A] | – | 4.3 | – | > 100
13 | CC[C@H]1NC(=O)[C@@H]([C@H](O)[C@H](C)CCN(C)Cc2ccncc2)N(C)C(=O)[C@@H](C(C)C)N(C)C(=O)[C@@H](CC(C)C)N(C)C(=O)[C@@H](CC(C)C)N(C)C(=O)[C@H](C)NC(=O)[C@@H](C)NC(=O)[C@@H](CC(C)C)N(C)C(=O)[C@@H](C(C)C)NC(=O)[C@H](CC(C)C)N(C)C(=O)[C@@H](C)N(C)C1=O [Compound DL, [(3R,4R,5S)-4-Hydroxy-3-methyl-5-(methylamino)-1-({pyridin-4-ylmethyl}-methylamino)-hexanoic acid]^1[(R)-methyl-Sar]^3 cyclosporin A] | – | 5.7 | – | > 100
14 | CC[C@H]1NC(=O)[C@@H]([C@H](O)[C@H](C)CCN(C)c2ccccn2)N(C)C(=O)[C@@H](C(C)C)N(C)C(=O)[C@@H](CC(C)C)N(C)C(=O)[C@@H](CC(C)C)N(C)C(=O)[C@H](C)NC(=O)[C@@H](C)NC(=O)[C@@H](CC(C)C)N(C)C(=O)[C@@H](C(C)C)NC(=O)[C@H](CC(C)C)N(C)C(=O)[C@@H](C)N(C)C1=O [Compound DD, [(3R,4R,5S)-4-Hydroxy-3-methyl-5-(methylamino)-1-(methyl-pyridin-2-yl-amino)-hexanoic acid]^1[(R)-methyl-Sar]^3 cyclosporin A] | – | 4.8 | 25 to 50 (≈ 32.4 to 64.8 µg/mL) | –
15 | CC[C@H]1NC(=O)[C@@H]([C@H](O)[C@H](C)CCCCCN(CC)CC)N(C)C(=O)[C@@H](C(C)C)N(C)C(=O)[C@@H](CC(C)C)N(C)C(=O)[C@@H](CC(C)C)N(C)C(=O)[C@H](C)NC(=O)[C@@H](C)NC(=O)[C@@H](CC(C)C)N(C)C(=O)[C@@H](C(C)C)NC(=O)[C@H](CC(C)C)N(C)C(=O)[C@@H](C)N(C)C1=O [Compound AH, [(6R,7R,8S)-7-Hydroxy-6-methyl-8-(methylamino)-1-N-diethylamino-nonanoic acid]^1[(R)-methyl-Sar]^3 cyclosporin A] | – | 4.7 | > 100 | –
16 | CC[C@H]1NC(=O)[C@@H]([C@H](O)[C@H](C)CCN(C)CCC(F)(F)F)N(C)C(=O)[C@@H](C(C)C)N(C)C(=O)[C@@H](CC(C)C)N(C)C(=O)[C@@H](CC(C)C)N(C)C(=O)[C@H](C)NC(=O)[C@@H](C)NC(=O)[C@@H](CC(C)C)N(C)C(=O)[C@@H](C(C)C)NC(=O)[C@H](CC(C)C)N(C)C(=O)[C@@H](C)N(C)C1=O [Compound DN, [(3R,4R,5S)-4-Hydroxy-3-methyl-5-(methylamino)-1-({3,3,3-trifluoropropyl}-methyl-amino)-hexanoic acid]^1[(R)-methyl-Sar]^3 cyclosporin A] | – | 5.5 | 25 to 50 (≈ 32.9 to 65.8 µg/mL) | –
